Patent US20150344540A1, “NOVEL GLP-1 RECEPTOR AGONISTS WITH CHOLESTEROL EFFLUX ACTIVITY” (NOVO NORDISK A/S, priority 2012, published 2015)
Where two headings read alike, the source gives them in different places. Where a SMILES comes first, the peptide text is derived from it. [ ]: non-standard residue; d: D form. Aib = CC(C)(N)C(=O)O

How the values were obtained:
[1] = tested on: Mouse monocyte/macrophage cell line, RAW 264.7; experiment: Cholesterol efflux assay (3H-cholesterol, macrophage cell line); format: cell-based; conditions: RAW 264.7, 4 hrs incubation, 0.1% human serum albumin; for 4 h Cholesterol Efflux Emax: ABCA1-mediated efflux
human GLP-1 receptor = human GLP-1 receptor (Homo sapiens, UniProt P43220); experiment: Functional GLP-1 receptor assay, in vitro potency (CRE luciferase; whole cells); format: cell-based
Chain of human GLP-1 receptor (P43220 24-463): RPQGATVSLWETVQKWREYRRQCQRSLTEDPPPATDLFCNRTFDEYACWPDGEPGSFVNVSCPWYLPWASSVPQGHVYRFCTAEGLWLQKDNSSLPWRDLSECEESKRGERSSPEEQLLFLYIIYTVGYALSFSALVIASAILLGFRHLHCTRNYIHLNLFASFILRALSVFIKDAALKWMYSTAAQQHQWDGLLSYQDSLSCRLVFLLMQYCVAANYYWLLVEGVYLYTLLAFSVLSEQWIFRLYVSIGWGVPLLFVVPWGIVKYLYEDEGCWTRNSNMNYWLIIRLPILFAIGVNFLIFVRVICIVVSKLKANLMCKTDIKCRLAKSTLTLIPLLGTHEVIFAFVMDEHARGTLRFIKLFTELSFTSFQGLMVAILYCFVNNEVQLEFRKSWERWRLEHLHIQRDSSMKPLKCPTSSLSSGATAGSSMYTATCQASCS

[2] = BHK cells expressing human GLP-1 receptor, 0% HSA, read-out: GLP1R CRE luc 0% HSA EC50 Mean Value
[3] = GLP1R CRE luc 1% HSA EC50 Mean Value, BHK cells expressing human GLP-1 receptor, 1% HSA

Compound | EC50 ([1]; read-out: 4 h Cholesterol Efflux EC50, ABCA1-mediated efflux (CPT-cAMP induced minus non-induced)) | EC50 (human GLP-1 receptor; GLP1R CRE luc 1% HSA EC50 Mean Value) | 4 h Cholesterol Efflux Emax [1] | EC50 (human GLP-1 receptor; [2]) | EC50 (human GLP-1 receptor; [3])
CC[C@H](C)[C@H](NC(=O)[C@H](Cc1ccccc1)NC(=O)[C@H](CCC(=O)O)NC(=O)[C@H](CCCCN)NC(=O)[C@@H](NC(=O)[C@H](C)NC(=O)[C@H](CCC(=O)O)NC(=O)CNC(=O)[C@H](CCC(=O)O)NC(=O)[C@H](CC(C)C)NC(=O)[C@H](Cc1ccc(O)cc1)NC(=O)[C@H](CO)NC(=O)[C@H](CO)NC(=O)[C@@H](NC(=O)[C@H](CC(=O)O)NC(=O)[C@H](CO)NC(=O)[C@@H](NC(=O)[C@H](CC(C)C)NC(=O)[C@@H](NC(=O)CNC(=O)[C@H](CC(=O)O)NC(=O)[C@H](C)NC(=O)[C@@H](N)Cc1c[nH]cn1)[C@@H](C)O)[C@@H](C)O)[C@@H](C)CC)C(C)C)C(=O)N[C@@H](C)C(=O)N[C@@H](Cc1c[nH]c2ccccc12)C(=O)N[C@@H](CC(C)C)C(=O)N[C@H](C(=O)N[C@@H](CCC(=O)O)C(=O)N[C@@H](CCCCN)C(=O)NC(C)(C)C(=O)N[C@@H](CCCCN)C(=O)N[C@@H](CCC(=O)O)C(=O)N[C@@H](Cc1ccccc1)C(=O)N[C@@H](CC(C)C)C(N)=O)C(C)C [Compound 14, [Asp9,Leu12,Ile16,Glu23,Val25,Glu34,Lys35,Aib36,Lys37]-GLP-1-(7-37)-peptidyl-Glu-Phe-Leu amide] (H-HADGTLTSDISSYLEGEAVKEFIAWLVEK[Aib]KEFL-NH2; N-terminus assumed) | 300 nM | 0.062 nM | – | – | –
CC[C@H](C)[C@H](NC(=O)[C@H](Cc1ccccc1)NC(=O)[C@H](CCC(=O)O)NC(=O)[C@H](CCCCN)NC(=O)[C@@H](NC(=O)[C@H](C)NC(=O)[C@H](CCC(=O)O)NC(=O)CNC(=O)[C@H](CCC(=O)O)NC(=O)[C@H](CC(C)C)NC(=O)[C@H](Cc1ccc(O)cc1)NC(=O)[C@H](CO)NC(=O)[C@H](CO)NC(=O)[C@@H](NC(=O)[C@H](CC(=O)O)NC(=O)[C@H](CO)NC(=O)[C@@H](NC(=O)[C@H](Cc1ccccc1)NC(=O)[C@@H](NC(=O)CNC(=O)[C@H](CCC(=O)O)NC(=O)C(C)(C)NC(=O)[C@@H](N)Cc1c[nH]cn1)[C@@H](C)O)[C@@H](C)O)C(C)C)C(C)C)C(=O)N[C@@H](C)C(=O)N[C@@H](Cc1c[nH]c2ccccc12)C(=O)N[C@@H](CC(C)C)C(=O)N[C@H](C(=O)N[C@@H](CCC(=O)O)C(=O)N[C@@H](CCCCN)C(=O)N[C@H](C(=O)N[C@@H](CCCCN)C(=O)N[C@@H](CCC(=O)O)C(=O)NCC(=O)N[C@@H](CC(C)C)C(N)=O)C(C)C)C(C)C [Compound 117, [Aib8,Glu23,Val25,Glu34,Lys35,Val36,Lys37]-GLP-1-(7-37)-peptidyl-Glu-Gly-Leu amide] (H-H[Aib]EGTFTSDVSSYLEGEAVKEFIAWLVEKVKEGL-NH2) | – | – | 114% | 0.011 nM | –
CC[C@H](C)[C@H](NC(=O)[C@H](Cc1ccccc1)NC(=O)[C@H](CCC(=O)O)NC(=O)[C@H](CCCCN)NC(=O)[C@@H](NC(=O)[C@H](C)NC(=O)[C@H](CCC(=O)O)NC(=O)CNC(=O)[C@H](CCC(=O)O)NC(=O)[C@H](CC(C)C)NC(=O)[C@H](Cc1ccc(O)cc1)NC(=O)[C@H](CO)NC(=O)[C@H](CO)NC(=O)[C@@H](NC(=O)[C@H](CC(=O)O)NC(=O)[C@H](CO)NC(=O)[C@@H](NC(=O)[C@H](Cc1ccccc1)NC(=O)[C@@H](NC(=O)CNC(=O)[C@H](CCC(=O)O)NC(=O)C(C)(C)NC(=O)[C@@H](N)Cc1c[nH]cn1)[C@@H](C)O)[C@@H](C)O)C(C)C)C(C)C)C(=O)N[C@@H](CCCCN)C(=O)N[C@@H](Cc1c[nH]c2ccccc12)C(=O)N[C@@H](CC(C)C)C(=O)N[C@H](C(=O)N[C@@H](CCC(=O)O)C(=O)N[C@@H](CCCCN)C(=O)NC(C)(C)C(=O)N[C@@H](CCCCN)C(=O)N[C@@H](CCC(=O)O)C(=O)N[C@@H](Cc1ccccc1)C(=O)N[C@@H](CC(C)C)C(N)=O)C(C)C [Compound 86, [Aib8,Glu23,Val25,Lys30,Glu34,Lys35,Aib36,Lys37]-GLP-1-(7-37)-peptidyl-Glu-Phe-Leu amide] (H-H[Aib]EGTFTSDVSSYLEGEAVKEFIKWLVEK[Aib]KEFL-NH2) | – | – | 102% | 0.103 nM | 0.043 nM
CC[C@H](C)[C@H](NC(=O)[C@H](Cc1ccccc1)NC(=O)[C@H](CCC(=O)O)NC(=O)[C@H](CCCCN)NC(=O)[C@@H](NC(=O)[C@H](C)NC(=O)[C@H](CCC(=O)O)NC(=O)CNC(=O)[C@H](CCC(=O)O)NC(=O)[C@H](CC(C)C)NC(=O)[C@H](Cc1ccc(O)cc1)NC(=O)[C@H](CO)NC(=O)[C@H](CO)NC(=O)[C@@H](NC(=O)[C@H](CC(=O)O)NC(=O)[C@H](CO)NC(=O)[C@@H](NC(=O)[C@H](Cc1ccccc1)NC(=O)[C@@H](NC(=O)CNC(=O)[C@H](CCC(=O)O)NC(=O)C(C)(C)NC(=O)[C@@H](N)Cc1c[nH]cn1)[C@@H](C)O)[C@@H](C)O)C(C)C)C(C)C)C(=O)N[C@@H](C)C(=O)N[C@@H](Cc1c[nH]c2ccccc12)C(=O)N[C@@H](CC(C)C)C(=O)N[C@H](C(=O)N[C@@H](CCC(=O)O)C(=O)N[C@@H](CCCCN)C(=O)N[C@H](C(=O)N[C@@H](CCCCN)C(=O)N[C@@H](CCC(=O)O)C(=O)N[C@@H](CCC(=O)O)C(=O)N[C@@H](CC(C)C)C(N)=O)C(C)C)C(C)C [Compound 116, [Aib8,Glu23,Val25,Glu34,Lys35,Val36,Lys37]-GLP-1-(7-37)-peptidyl-Glu-Glu-Leu amide] (H-H[Aib]EGTFTSDVSSYLEGEAVKEFIAWLVEKVKEEL-NH2) | – | – | 131% | 0.025 nM | 0.016 nM
CC[C@H](C)[C@H](NC(=O)[C@H](Cc1ccccc1)NC(=O)[C@H](CCC(=O)O)NC(=O)[C@H](CCCCN)NC(=O)[C@@H](NC(=O)[C@H](C)NC(=O)[C@H](CCC(=O)O)NC(=O)CNC(=O)[C@H](CCC(=O)O)NC(=O)[C@H](CC(C)C)NC(=O)[C@H](Cc1ccc(O)cc1)NC(=O)[C@H](CO)NC(=O)[C@H](CO)NC(=O)[C@@H](NC(=O)[C@H](CC(=O)O)NC(=O)[C@H](CO)NC(=O)[C@@H](NC(=O)[C@H](Cc1ccccc1)NC(=O)[C@@H](NC(=O)CNC(=O)[C@H](CCC(=O)O)NC(=O)C(C)(C)NC(=O)[C@@H](N)Cc1c[nH]cn1)[C@@H](C)O)[C@@H](C)O)C(C)C)C(C)C)C(=O)N[C@@H](C)C(=O)N[C@@H](Cc1c[nH]c2ccccc12)C(=O)N[C@@H](CC(C)C)C(=O)N[C@H](C(=O)N[C@@H](CCC(=O)O)C(=O)N[C@@H](CCCCN)C(=O)NC(C)(C)C(=O)N[C@@H](CCCCN)C(=O)N[C@@H](CCC(=O)O)C(N)=O)C(C)C [Compound 63, [Aib8,Glu23,Val25,Glu34,Lys35,Aib36,Lys37]-GLP-1-(7-37)-peptidyl-Glu amide] (H-H[Aib]EGTFTSDVSSYLEGEAVKEFIAWLVEK[Aib]KE-NH2) | – | – | 135% | 0.014 nM | 0.005 nM
H-HAEGTFTSDVSSYLEGEAVKEFIAWLVEKVKEFLEK-OH [Compound 123, [Glu23,Val25,Glu34,Lys35,Val36,Lys37]-GLP-1-(7-37)-peptidyl-Glu-Phe-Leu-Glu-Lys] | – | – | 111% | – | 0.031 nM
CC[C@H](C)[C@H](NC(=O)[C@H](Cc1ccccc1)NC(=O)[C@H](CCC(=O)O)NC(=O)[C@H](CCCNC(=N)N)NC(=O)[C@@H](NC(=O)[C@H](C)NC(=O)[C@H](CCC(=O)O)NC(=O)CNC(=O)[C@H](CCC(=O)O)NC(=O)[C@H](CC(C)C)NC(=O)[C@H](Cc1ccc(O)cc1)NC(=O)[C@H](CO)NC(=O)[C@H](CO)NC(=O)[C@@H](NC(=O)[C@H](CC(=O)O)NC(=O)[C@H](CO)NC(=O)[C@@H](NC(=O)[C@H](Cc1ccccc1)NC(=O)[C@@H](NC(=O)CNC(=O)[C@H](CCC(=O)O)NC(=O)C(C)(C)NC(=O)[C@@H](N)Cc1c[nH]cn1)[C@@H](C)O)[C@@H](C)O)C(C)C)C(C)C)C(=O)N[C@@H](C)C(=O)N[C@@H](Cc1c[nH]c2ccccc12)C(=O)N[C@@H](CC(C)C)C(=O)N[C@H](C(=O)N[C@@H](CCC(=O)O)C(=O)N[C@@H](CCCNC(=N)N)C(=O)NC(C)(C)C(=O)N[C@@H](CCCNC(=N)N)C(=O)N[C@@H](CCC(=O)O)C(=O)N[C@@H](Cc1ccccc1)C(=O)N[C@@H](CC(C)C)C(N)=O)C(C)C [Compound 43] (H-H[Aib]EGTFTSDVSSYLEGEAVREFIAWLVER[Aib]REFL-NH2) | – | – | 82% | 0.086 nM | 0.041 nM
H-HAEGTFTSDVSSYLEGQAAKEFIAWLVEKVKEFLDK-OH [Compound 129, [Glu34,Lys35,Val36,Lys37]-GLP-1-(7-37)-peptidyl-Glu-Phe-Leu-Asp-Lys] | – | – | 111% | 0.045 nM | 0.012 nM
CC[C@H](C)[C@H](NC(=O)[C@H](Cc1ccccc1)NC(=O)[C@H](CC(C)C)NC(=O)[C@H](CCCCN)NC(=O)[C@@H](NC(=O)[C@H](C)NC(=O)[C@H](CCC(=O)O)NC(=O)CNC(=O)[C@H](CCC(=O)O)NC(=O)[C@H](CC(C)C)NC(=O)[C@H](Cc1ccc(O)cc1)NC(=O)[C@H](CO)NC(=O)[C@H](CO)NC(=O)[C@@H](NC(=O)[C@H](CC(=O)O)NC(=O)[C@H](CO)NC(=O)[C@@H](NC(=O)[C@H](Cc1ccccc1)NC(=O)[C@@H](NC(=O)CNC(=O)[C@H](CCC(=O)O)NC(=O)C(C)(C)NC(=O)[C@@H](N)Cc1c[nH]cn1)[C@@H](C)O)[C@@H](C)O)C(C)C)C(C)C)C(=O)N[C@@H](C)C(=O)N[C@@H](Cc1c[nH]c2ccccc12)C(=O)N[C@@H](CC(C)C)C(=O)N[C@H](C(=O)N[C@@H](CCC(=O)O)C(=O)N[C@@H](CCCCN)C(=O)NC(C)(C)C(=O)N[C@@H](CCCCN)C(=O)N[C@@H](CCC(=O)O)C(=O)N[C@@H](Cc1ccccc1)C(=O)N[C@@H](CC(C)C)C(N)=O)C(C)C [Compound 28, [Aib8,Glu23,Val25,Leu27,Glu34,Lys35,Aib36,Lys37]-GLP-1-(7-37)-peptidyl-Glu-Phe-Leu amide] (H-H[Aib]EGTFTSDVSSYLEGEAVKLFIAWLVEK[Aib]KEFL-NH2) | – | – | 78% | – | 0.104 nM
